pKi: −log10 of the molar value. Blank lines part the entries; values can stand above or below the molecule they belong to.
What was measured:
[1] = tested on: PLD activity in PMN lysates; experiment: PLD activity in PMN lysates after LTB4, lipid added to the lysate; assay type: biochemical, human; details: 100 nM added to PMN lysates 60 sec after LTB4 100 nM
Description: Lysates were generated from cells at rest or after exposure to agonist using a lysis buffer comprised of 0.1 M Hepes (pH 7.4), 0.7 mM sodium orthovanadate, 10 μM p-nitrophenylphosphate, 10 mM EGTA, 5.5% triton X-100, 0.5 M β-glycerophosphate, 10 mM phenylmethylsulfonylfluoride, 0.1 mM ammonium molybdate, 12 mM DFP, 5 μgml^−1 leupeptin, 2 μgml^−1 aprotinin and 7 μgml^−1 pepstatin A (as in ref 25) and utilized for bioassay.
(§1) PMN lysates (90-130 μg protein), purified phospholipase D (3-30 units) (EC 3.1.4.4., Sigma Chemical Co.) or recombinant hPLD1b were warmed (37° C. for mammalian enzyme and 30° C. for cabbage, 3 min) and exposed to PSDP, PSMP or FDP (10-1000 nM, 5 min, 37° C. or 30° C.) followed by PC (0.5 to 5 mM) in Tris-HCl (50 mM pH 7.5) with CaCl2 (30 mM). Reactions were terminated at 30 second intervals (0-90 seconds) with Tris-HCl (1 M) plus EDTA (50 mM). Choline release was quantitated as in ref 26.
Because PLD activation occurs in vivo in the presence of many cofactors which modulate its activity, it was also determined the impact of PSDP on PLD activity in PMN lysates. Sixty seconds following LTB4, PSDP levels decreased (28%, FIG. 1) and PLD activity was maximal (FIG. 2).

[2] = tested on: cabbage phospholipase D (cPLD, EC 3.1.4.4); experiment: Purified cabbage PLD activity (choline release from PC), enzyme kinetics with lipids; assay type: biochemical; details: for pKi: cPLD 3 u/reaction, 30° C., PC 0.5-5 mM, Ki from Slope = Km/Vm (1 + [I]/Ki); for Vm app: cPLD in presence of the lipid, enzyme alone Vm 0.29 (nmoles/sec); for inhibition of cPLD (in words): compared with PSDP
Description: Reactions were terminated at 30 sec intervals and choline release quantitated as in FIG. 2 legend. Values represent the mean for n≧4 for reactions in the absence of PSDP (●, r^2=0.963) and the mean for n≧3 with PSDP (Δ, r^2=0.995, 0.971 and 0.953 for 10, 100 and 1000 nM, respectively). CS Chem3D Pro software (CambridgeSoft Corp., Cambridge, Mass.) was used to calculate an energy minimized model of PSDP (inset).
as §1

[3] = target: T1, recombinant human PLD1b (rhPLD1b) (Homo sapiens, UniProt Q13393); experiment: Recombinant human PLD1b activity (choline release from PC), enzyme kinetics with PSDP; assay type: biochemical
T1 construct: made in house; host or cells: Spodoptera frugiperda Sf9 cells, recombinant baculovirus (pACGHLT transfer vector)
T1 sequence (Q13393 1-1036 isoform Q13393-2): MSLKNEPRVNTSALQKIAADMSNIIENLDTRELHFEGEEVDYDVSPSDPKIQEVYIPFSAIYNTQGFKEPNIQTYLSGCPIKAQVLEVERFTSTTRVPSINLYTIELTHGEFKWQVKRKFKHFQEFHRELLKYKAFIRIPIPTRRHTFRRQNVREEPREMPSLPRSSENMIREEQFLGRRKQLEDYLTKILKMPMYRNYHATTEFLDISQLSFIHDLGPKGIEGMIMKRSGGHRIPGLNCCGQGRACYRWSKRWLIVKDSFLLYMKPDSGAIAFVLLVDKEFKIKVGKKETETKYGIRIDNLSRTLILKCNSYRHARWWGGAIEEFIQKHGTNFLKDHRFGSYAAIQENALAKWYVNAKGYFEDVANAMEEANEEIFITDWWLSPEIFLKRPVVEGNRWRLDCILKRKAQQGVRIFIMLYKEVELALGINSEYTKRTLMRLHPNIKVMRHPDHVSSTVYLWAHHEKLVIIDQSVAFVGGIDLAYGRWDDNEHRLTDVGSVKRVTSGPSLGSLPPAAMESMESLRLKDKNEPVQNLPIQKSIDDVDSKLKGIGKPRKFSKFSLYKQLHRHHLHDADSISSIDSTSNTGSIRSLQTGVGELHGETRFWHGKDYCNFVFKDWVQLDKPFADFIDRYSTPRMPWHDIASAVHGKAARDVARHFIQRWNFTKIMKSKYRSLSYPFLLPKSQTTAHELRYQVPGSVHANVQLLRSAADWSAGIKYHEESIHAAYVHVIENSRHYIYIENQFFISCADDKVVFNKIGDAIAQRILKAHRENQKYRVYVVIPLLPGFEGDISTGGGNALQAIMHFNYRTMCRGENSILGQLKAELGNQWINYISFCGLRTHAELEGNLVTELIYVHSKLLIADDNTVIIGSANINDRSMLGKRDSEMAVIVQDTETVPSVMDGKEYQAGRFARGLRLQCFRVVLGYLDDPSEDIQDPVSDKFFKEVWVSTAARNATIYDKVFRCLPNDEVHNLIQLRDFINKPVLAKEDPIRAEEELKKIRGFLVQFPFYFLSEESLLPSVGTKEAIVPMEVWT
Description: Spodoptera frugiperda (Sf9) cells were cultured in suspension at 2×10^5 to 2×10^6 cells/ml TC 100 medium supplemented with 10% fetal calf serum (Gibco). A cDNA encoding human PLD1b (cloned from placental tissue) was inserted into the transfer vector pACGHLT (Pharmingen) downstream of, and in frame with, vector sequences encoding glutathione-S-transferase (GST), hexahistidine, a protein kinase A phosphorylation site and a thrombin cleavage site. The GST-hPLD1b construct was cotransfected into Sf9 cells with linearized, polyhedrin-minus (PH-), AcMNPV DNA, Bac-N-Blue, according to the supplier's instructions (Invitrogen). Homologous recombination between linearized virus and the transfer vector restored the function of essential viral gene ORF1629 to yield infectious, recombinant virus. After two rounds of plaque-purification, recombinant virus was amplified by large scale infections of Sf9 cells until a titer of 8×10^7 pfu/ml was obtained. […]
as §1, with “Reactions were terminated at 30 second intervals (0-90 seconds) with Tris-HCl (1 M) plus EDTA (50 mM).” left out

[32P]-PSDP in human PMN = PSDP remodeling in [32P]-labeled human PMN (TLC, phosphoimaging); assay type: cell-based
Description: Panel A: Scheme for aspirin-triggered 15-epi-LXA4 biosynthesis and structure of the stable analog, 15-epi-16-para-fluoro-phenoxy-LXA4-methyl ester (15-epi-LXa) (left), and hypothetical scheme for PIPP signaling (right). PMN were labeled with [γ-^32P]-ATP and incubated (12.5×10^6 ml^−1, 37° C.) with LTB4 (●, 100 nM), 15-epi-LXa (♦, 100 nM), vehicle (□, 0.1% ethanol) or 15-epi-LXa (100 nM, 5 min) followed by LTB4 (▴, 100 nM). Non-saponifiable lipids were extracted and separated by TLC, and [^32P]-incorporation was quantitated by phosphoimaging (see Methods). Values are densitometric measurements.
Peripheral venous blood (˜180 ml) was obtained by venipuncture from healthy volunteers who denied taking any medication for at least two weeks and had given written informed consent to a protocol approved by Brighamn and Women's Hospital's Human Research Committee. PMN were isolated from whole blood and steady state labeled with [γ-^32P]ATP (40 μCiml^−1, 90 min, 37° C.) as in (Levy, B. D., Petasis, N. A., and Serhan, C. N. (1997) Polyisoprenyl phosphates in intracellular signalling. Nature 389, 985-989). Labeled PMN were resuspended (20×10^6 ml^−1 PBS with 1 mM CaCl2, pH 7.40) and exposed to LTB4 (100 nM), 15-epi-LXa (100 nM) or vehicle (0.1% EtOH) for 0 to 300 seconds (37° C.). From each incubation, aliquots were removed at indicated intervals to determine the radiolabeling of nonsaponifiable lipids (10-12×10^6 PMN) and PLD activity (1-1.25×10^6 PMN). Materials present in each incubation were saponified, extracted and separated by TLC with phosphoimaging (model 425E and integration software; Molecular Dynamics), which was used for PSDP mass determination as in ref 22.

human PMN = experiment: LTB4-stimulated superoxide anion generation by human PMN (cytochrome c); assay type: cell-based; details: 15-epi-LXa 1-100 nM, 5 min, then LTB4 100 nM, 10 min, 37° C.
Description: (§2) Cell lysates (2-5×10^6 cells, 90-130 μg protein) were prepared from the same aliquots of PMN used to determine PSDP (see FIG. 1 & Methods), warmed to 37° C. and exposed to PC (2 mM in 50 mM Tris-HCl, pH 7.5, plus 30 mM CaCl2). Reactions were terminated at 30 sec intervals and choline release was quantitated (26). […] Superoxide anion generation by freshly isolated human PMN was determined (10 min, 37° C.) for LTB4 (100 nM), 15-epi-LXa (100 nM), and increasing concentrations of 15-epi-LXa (1-100 nM, 5 min, 37° C.) followed by LTB4 (100 nM, 10 min, 37° C.). Values reported in Panel C are the mean±S.E. for n=3 separate PMN donors. *P<0.05 by Student's t-test.
Freshly isolated human PMN (1-3×10^6 PMN/ml HBSS+1.6 mM CaCl2) were incubated (5 min, 37° C.) in the presence of 15-epi-LXa (1-100 nM) or vehicle (0.1% ethanol), and then exposed (10 min) to LTB4 (100 nM) in the presence of cytochrome c (7 mg/ml). Superoxide anion generation was determined as in ref 22.

[4] = tested on: PLD activity in human PMN; experiment: LTB4-stimulated PLD activity in lysates of treated human PMN; assay type: cell-based
Description: as §2
Peripheral venous blood (˜180 ml) was obtained by venipuncture from healthy volunteers who denied taking any medication for at least two weeks and had given written informed consent to a protocol approved by Brighamn and Women's Hospital's Human Research Committee. […]
as §1, with “Reactions were terminated at 30 second intervals (0-90 seconds) with Tris-HCl (1 M) plus EDTA (50 mM).” left out

[5] = effect on LTB4-stimulated changes in PSDP

mode of inhibition (Lineweaver-burk analyses) ([2]; PSDP 10 to 1000 nM): competitive inhibition model
pKi [2]: 7.70
Vm app [2]: 0.25
Molecule: CC(C)=CCC/C(C)=C/CC/C(C)=C/C1C(COP(=O)(O)OP(=O)(O)O)C1(C)CC/C=C(\C)CCC=C(C)C (stereo in doubt) [Presqualene diphosphate, presqualene diphosphate]
inhibition of PLD activity [1]: 89.5+/−9.7%
pKi ([3]; rhPLD1b 0.3 u/reaction, 37° C.): 8.22
Vm app ([3]; rhPLD1b in presence of the lipid, enzyme alone Vm 0.36 (nmoles/sec)): 0.03

loss in inhibitory potency compared to PSDP ([2]; cPLD): greater than 100 fold
pKi [2]: 5.49
Vm app [2]: 0.36
Molecule: CC(C)=CCC/C(C)=C/CC/C(C)=C/C1C(COP(=O)(O)O)C1(C)CC/C=C(\C)CCC=C(C)C (stereo in doubt) [Presqualene monophosphate, presqualene monophosphate]

Molecule: COC(=O)CCC[C@H](O)[C@H](O)/C=C/C=C/C=C\C=C\[C@H](O)COc1ccc(F)cc1 [15-epi-LXa, 15-epi-16-para-fluoro-phenoxy-LXA4-methyl ester]
effect alone on rate of PIPP remodeling ([32P]-PSDP in human PMN; 100 nM, without LTB4): did not affect the rate of PIPP remodeling
increase in [32P]-PSDP ([32P]-PSDP in human PMN; 15-epi-LXa 100 nM, 5 min, then equimolar LTB4 100 nM, at 60 sec): ~72%
potency relative to 16-phenoxy-LXA4 and LXA4 ([32P]-PSDP in human PMN; [5]): 1-2 orders of magnitude
rank order of potency ([32P]-PSDP in human PMN; [5]): 15-epi-LXa>16-phenoxy-LXA4>LXA4
inhibition of LTB4-stimulated O2- generation (in words) (human PMN): potently inhibited
inhibition of LTB4-stimulated PLD activity ([4]; 15-epi-LXa 100 nM, 5 min, then LTB4 100 nM, at 60 sec): ~81%

Molecule: COC(=O)CCC[C@H](O)[C@H](O)/C=C/C=C/C=C\C=C\[C@H](O)COc1ccccc1 [16-phenoxy-LXA4, 16-phenoxy-LXA4-methyl ester]
rank order of potency ([32P]-PSDP in human PMN; [5]): 15-epi-LXa>16-phenoxy-LXA4>LXA4

Molecule: CCCCC/C=C\C[C@@H](O)/C=C/C=C/C=C\[C@@H](O)CCCC(=O)O [LTB4, leukotriene B4]
decrease in [32P]-PSDP ([32P]-PSDP in human PMN; LTB4 100 nM, within 60 sec, 37° C.): 28%
time of maximal increase in PLD activity ([4]; LTB4 100 nM): ≤ 60 s

Molecule: CCCCC[C@H](O)/C=C/C=C\C=C\C=C\[C@@H](O)[C@@H](O)CCCC(=O)O [LXA4, lipoxin A4]
rank order of potency ([32P]-PSDP in human PMN; [5]): 15-epi-LXa>16-phenoxy-LXA4>LXA4

Vm app [2]: 0.46
inhibition of cPLD (in words) [2]: Comparable inhibition was not evident
Molecule: CC(C)=CCC/C(C)=C/CC/C(C)=C/CC/C=C(\C)CC/C=C(\C)CCC=C(C)C [Squalene]

Vm app [2]: 0.43
inhibition of cPLD (in words) [2]: Comparable inhibition was not evident
Molecule: phosphatidic acid
